Experimental data from US6008251A, “Retinoid-like compounds” (Bristol-Myers Squibb Company, priority 1998, dated 1999).

Legend:
HL60 cells = assay: Differentiation and apoptosis of HL 60 cells (NBT staining); type: cell-based; conditions: for EC50 (culture day necessary to convert cells into a differentiated or apoptosed phenotype): 1 μM compound, culture up to 9 days, NBT staining
Description: HL 60 cells were evaluated for the effect of retinoic acid and the compound of Example 1 on both differentiation and apoptosis end points by the method described in Molecular and Cellular Biology, 15, 3540-3551 (1995). Cells were grown in culture for times up to 9 days in the presence of 1 μM all-trans retinoic acid (t-RA) or 1 μM compound of Example 1. At the end of each day of the culture period, cells were washed and stained with NBT (nitro blue tetrazolium) and counted.

[1] = system: squamous-cell carcinoma of the head and neck; conditions: cited from earlier work

| SMILES | EC50 (culture day necessary to convert cells into a differentiated or apoptosed phenotype) (HL60 cells) [days] | activity in this assay compared with t-RA (in words) (HL60 cells; 1 μM, compared with 1 μM t-RA) | percentage of either differentiated or apoptosed HL60 cells (HL60 cells; 1 μM, day 1) [%] | percentage of either differentiated or apoptosed HL60 cells (HL60 cells; 1 μM, day 2) [%] | percentage of either differentiated or apoptosed HL60 cells (HL60 cells; 1 μM, day 3) [%] | percentage of either differentiated or apoptosed HL60 cells (HL60 cells; 1 μM, day 4) [%] | percentage of either differentiated or apoptosed HL60 cells (HL60 cells; 1 μM, day 5) [%] | percentage of either differentiated or apoptosed HL60 cells (HL60 cells; 1 μM, day 6) [%] | percentage of either differentiated or apoptosed HL60 cells (HL60 cells; 1 μM, day 7) [%] | percentage of either differentiated or apoptosed HL60 cells (HL60 cells; 1 μM, day 8) [%] | percentage of either differentiated or apoptosed HL60 cells (HL60 cells; 1 μM, day 9) [%] | prevention of second primary tumors (in words) [1] |
| --- | --- | --- | --- | --- | --- | --- | --- | --- | --- | --- | --- | --- |
| CC1(C)C(=O)C(C)(C)c2cc(C(=O)Nc3ccc(C(=O)O)cc3)ccc21 [Example 1, 4(1',1',3',3'-Tetramethyl-2'-keto-indan-5'-carboxamido)benzoicacid] | 4.0 | comparable to t-RA | 11 | 22 | 40 | 50 | 61 | 78 | 85 | 95 | 93 |  |
| CC1=C(/C=C/C(C)=C/C=C/C(C)=C/C(=O)O)C(C)(C)CCC1 [all-trans retinoic acid] | 3.2 |  | 21 | 23 | 48 | 80 | 95 | 96 | 97 | 98 | 97 |  |
| CC1=C(/C=C/C(C)=C/C=C/C(C)=C\C(=O)O)C(C)(C)CCC1 [Isotretinoin] |  |  |  |  |  |  |  |  |  |  |  | useful in prevention of second primary tumors |
